Consider four compounds from patent US20260216143A1, “PHARMACEUTICAL COMPOSITION FOR TREATING CHRONIC KIDNEY DISEASE” (priority 2020, published 2026).

For experiment [1], the system named is Alport syndrome model (129-Col4a3tm 1Dec/J) mice. The experiment is described as follows: Body weight of Alport syndrome (AS) mice (Example 2). In kind it is in vivo, mouse. Particulars: FIG. 16; groups receiving a DHA ethyl ester; p<0.01, t test. The protocol: Body weight was measured using a scale for animals twice weekly from the grouping day and daily from the day of the first animal death until the sampling day of each group.
Animals were restrained, and a test substance was administered directly into the stomach using a 1-mL syringe and a sonde (Fuchigami Kikai, CAT No. 5200). Administration was performed in accordance with the conditions described in Section 5.1., so that a volume of 5 mL/kg should be administered to each animal. The volume administered was calculated on the basis of the most recent (before the administration day) body weight.
The mean and standard error of the body weight and the wet weight of each organ were calculated for each study group. Further, each of the measured values was compared between the Group Number (2) and each of other groups. A statistical analysis add-in software “Excel Statistics 2015” (Social Survey Research Information Co., Ltd.) was used for statistical processing, and a significant difference was determined with a […] (p value)<0.05.

Experiment [2] has as its system Alport syndrome model (129-Col4a3tm1Dec/J) mice. The experiment is described as follows: Survival of Alport syndrome model mice, oral repeated administration (Example 1). Conditions: Pirespa 100 mg/kg/day, FIG. 1. In kind it is in vivo, mouse. The protocol:
Each test substance is orally and repeatedly administered to Alport syndrome model (129-Col4a3tm1Dec/J) mice for 10 weeks, and then a serum biochemistry test is performed. The kidneys are further observed histopathologically to examine the effect of administration of each test substance on the kidneys.
Test substances were prepared for each use before use on the experiment day. Candesartan was dissolved at a dose of 4 mg/mL in phosphate-buffered saline (hereinafter referred to as PBS) to prepare a dosing solution (10 mg/2.5 mL/kg) for Group Numbers 6 and 7. A solution was prepared by diluting this dosing solution with an equal amount of PBS as a dosing solution (10 mg/5 ml/kg) for Group Number 3. Pirespa was dissolved at a dose of 40 mg/mL in PBS and dissolved in PBS which was to be a dosing solution (50 mg/1.25 mL/kg) for Group Number 6. A solution was prepared by diluting this dosing solution with an equal amount of PBS as a dosing solution (50 mg/2.5 mL/kg) for Group Number 4. Lotriga was suspended at a dose of […] in a 0.5% methylcellulose solution (hereinafter referred to as MC) to prepare a dosing solution (1500 mg/2.5 mL/kg) for Group Number 7. […]
Animals were restrained, and a test substance was orally administered using a 1-mL syringe and a sonde. […] The volume administered was calculated on the basis of the most recent body weight. […]

Experiment [3] shares this test system. The experiment is described as follows: Histopathological test of the kidneys: HE, PAS, MT, PAM staining and damage scoring (Example 1). In kind it is in vivo, mouse. On the procedure:
(§1) The body weights of animals were measured at Day 45, blood was drawn from the caudal vena cava under anesthesia with isoflurane, and animals were euthanized by exsanguination. Death was confirmed by visually observing cardiopulmonary arrest (euthanasia). Then, the left and right kidneys, the left and right femurs, the left and right eyeballs, the cochlea, the heart, and the pancreas were collected and trimmed, and the wet weights of the left and right kidneys, the left and right femurs, and the heart were measured. Among the collected biotissues, the left and right femurs were immersed in a 70% ethanol solution. Other tissues were immersed in a 10% neutral buffered formalin solution. Of note, the right kidney was divided into two at the renal pelvis and immersed after to obtain kidney specimens.
The kidneys immersed in a 10% neutral buffered formalin solution were sent to the external facility, and Hematoxylin-Eosin (HE) staining, Periodic Acid-Schiff (PAS) staining, Masson's Trichrome (MT) staining, and Periodic Acid Methenamine silver (PAM) staining were performed for pathological assessment.
The severity of glomerular damage was assessed in each group of Alport syndrome model mice. Specifically, the severity was quantified for glomerulosclerosis, crescent formation, and basement membrane with a double contour with five levels (0, no change; 1, slight; 2, mild; 3, moderate; 4, severe. Refer to “Guidance on pathological diagnosis of diabetic nephropathy and hypertensive nephrosclerosis,” Tokyo Igakusha).
The severity of renal tubular damage was assessed in each group of Alport syndrome model mice. Specifically, the severity was quantified for renal tubular expansion accompanied by hyaline casts, interstitial fibrosis, inflammatory cell infiltration into the interstitium, and renal tubular expansion accompanied by cellular casts with five levels (0, no change; 1, slight; 2, mild; 3, moderate; 4, severe. Refer to “Guidance on pathological diagnosis of diabetic nephropathy and hypertensive nephrosclerosis,” Tokyo Igakusha).

Experiment [4] has the same test system. In words: Body weight of Alport syndrome model mice (Example 1). Particulars: FIG. 2; body weight immediately before death used for dead mice; candesartan 10 mg/kg, Lotriga 1500 mg/kg. Format: in vivo, mouse.
Method: Body weight was measured using a scale for animals twice weekly from the grouping day and on the sampling day of each group.
Animals were restrained, and a test substance was orally administered using a 1-mL syringe and a sonde. Administration was performed in accordance with the conditions described in Section 5.1., so that a volume of approximately 0.1 mL should be administered to each animal. The volume administered was calculated on the basis of the most recent body weight. […] The administration interval was 6 hours or longer.
Of note, when the mean body weight was calculated, the body weight of a dead mouse was not assumed as zero, and the body weight measured immediately before death was used for calculation.
Experiment [5] shares this test system. In kind it is in vivo. Conditions: FIG. 4. The protocol: as §1
The obtained blood was allowed to stand at room temperature for at least four hours and centrifuged under conditions of 4° C., 12000 rpm, and 3 min to obtain serum. Serum was divided into two tubes and frozen.
Blood biochemistry test items were measured using the frozen serum delegated to the external facility. The measurement items were total protein, albumin, blood urea nitrogen (BUN), creatinine (CRE), uric acid, sodium (Na), potassium (K), chloride (CI), calcium, phosphorus, amylase, lipase, AST (GOT), ALT (GPT), Y-GTP, LDH, triglyceride, total cholesterol, HDL cholesterol, total bilirubin, and glucose. Pooled specimens of each group were used for measurement.

A further experiment concerns Col4a3−/− mice. Particulars: cited from earlier work.
[6] abbreviates: serum, pooled specimens per group, Day 45.

On to `CC/C=C\C/C=C\C/C=C\C/C=C\C/C=C\C/C=C\CCC(=O)OCC` [DHA ethyl ester, docosahexaenoic acid ethyl ester], for which the “mean body weight vs untreated group” value in experiment [1] was “significantly increased as compared with the untreated group”.

`Cc1ccc(=O)n(-c2ccccc2)c1` [Pirespa]: the “survival (in words)” value in experiment [2] (up to Day 45, candesartan 10 mg/kg, Lotriga 1500 mg/kg) is “all mice died early”.

In the case of `CCOc1nc2cccc(C(=O)OC(C)OC(=O)OC3CCCCC3)c2n1Cc1ccc(-c2ccccc2-c2nn[nH]n2)cc1` (stereo not drawn) [candesartan, Candesartan cilexetil], the “kidney histopathology, HE staining findings” value in experiment [3] (FIG. 7) is “adhesion to the glomerulus due to glomerulosclerosis and crescent formation, renal tubular expansion, and lymphocyte infiltration into the interstitium were observed at various sites”. The “kidney histopathology, PAS staining findings” value in experiment [3] (FIG. 8) was “glomerulosclerosis, in which PAS-positive substances were deposited on the mesangial substrate, and growth of crescent cells were observed”. For the same compound, in experiment [3] (FIG. 9), the “kidney histopathology, MT staining (fibrosis)” value was “Fibrosis was observed in an area of crescent hyperplasia and in the renal tubular interstitium”. In experiment [3] (FIG. 10), the “kidney histopathology, PAM staining (double contour of the loop wall)” value is on record as “A double contour of the loop wall was observed”. In addition, the “changes with time in the mean body weight” value in experiment [4] is “body weight loss began from 25 days after administration, and marked body weight loss was also observed in surviving mice”. Also, the “progression of renal failure” value in experiment [5] (judged from blood biochemistry) is recorded as “at a level comparable to that in the untreated group”. For the same compound, in experiment [5] (setting [6]), the BUN level result was “very high and as high as in the untreated group”; the K level result is “development of hyperkalemia”; the creatinine level entry is “very high and as high as in the untreated group”. Moreover, the survival rate in experiment [2] (Day 45 (end of study), candesartan 10 mg/kg once daily, Lotriga 1500 mg/kg once daily) turned out to be 40%. In the experiment with Col4a3−/− mice, the serum urea concentration result is “markedly decreased”, the survival time result is listed as “significantly prolonged” and the urine protein level result is “markedly decreased”.

For `CCOC(=O)[C@H](CCc1ccccc1)N[C@@H](C)C(=O)N1[C@H](C(=O)O)C[C@@H]2CCC[C@@H]21` [ramipril], in the experiment on Col4a3−/− mice, the serum urea concentration entry was “markedly decreased”, the survival time entry was “significantly prolonged” and the urine protein level entry is “markedly decreased”.
